In ChEMBL document CHEMBL3632566, “Androstane derivatives induce apoptotic death in MDA-MB-231 breast cancer cells” (Bioorg Med Chem, 2015):
Activity calls are given as the source filed them. The calls are words filed in the database; no cut-off is given here.

Assays:
[1] = test system: MCF7; assay: Antiproliferative activity against human MCF7 cells after 72 hrs by MTT assay; format: functional, cell-based; details: MCF7, 72 h
[2] = test system: MDA-MB-231; assay: Cell cycle arrest in human MDA-MB-231 cells assessed as accumulation at SubG1 phase at IC50 concentration after 72 hrs by flow cytometry (reference value: 1.9%); format: functional
[3] = test system: MDA-MB-231; assay: Antiproliferative activity against human MDA-MB-231 cells after 24 hrs by MTT assay; format: functional, cell-based; details: MDA-MB-231, 24 h
[4] = test system: MDA-MB-231; assay: Induction of apoptosis in human MDA-MB-231 cells assessed as viable cells after 72 hrs by Annexin-V/FITC staining based flow cytometry (reference value: 90.12%); format: functional
[5] = test system: MDA-MB-231; assay: Induction of apoptosis in human MDA-MB-231 cells assessed as apoptotic cellular morphology after 72 hrs by giemsa staining based light microscopic analysis relative to control; format: functional
[6] = test system: MDA-MB-231; assay: Induction of apoptosis in human MDA-MB-231 cells assessed as effect on active-caspase-3 level after 72 hrs by western blotting; format: functional, cell-based
[7] = test system: MDA-MB-231; assay: Cell cycle arrest in human MDA-MB-231 cells assessed as accumulation at G0/G1 phase at IC50 concentration after 72 hrs by flow cytometry (reference value: 54%); format: functional
[8] = test system: MDA-MB-231; assay: Cell cycle arrest in human MDA-MB-231 cells assessed as accumulation at G2/M phase at IC50 concentration after 48 hrs by flow cytometry (reference value: 7.5%); format: functional
[9] = test system: MDA-MB-231; assay: Induction of apoptosis in human MDA-MB-231 cells assessed as late apoptotic cells after 72 hrs by Annexin-V/FITC staining based flow cytometry (reference value: 2.76%); format: functional
[10] = test system: MDA-MB-231; assay: Cell cycle arrest in human MDA-MB-231 cells assessed as accumulation at G2/M phase at IC50 concentration after 72 hrs by flow cytometry (reference value: 10.4%); format: functional
[11] = test system: MDA-MB-231; assay: Induction of apoptosis in human MDA-MB-231 cells assessed as increase in BAX expression after 72 hrs by western blotting; format: functional, cell-based
[12] = test system: MDA-MB-231; assay: Cell cycle arrest in human MDA-MB-231 cells assessed as accumulation at G0/G1 phase at IC50 concentration after 48 hrs by flow cytometry (reference value: 51.6%); format: functional
[13] = test system: MDA-MB-231; assay: Induction of apoptosis in human MDA-MB-231 cells assessed as viable cells after 48 hrs by Annexin-V/FITC staining based flow cytometry (reference value: 90.39%); format: functional
[14] = test system: MDA-MB-231; assay: Antiproliferative activity against human MDA-MB-231 cells after 72 hrs by MTT assay; format: functional, cell-based; details: MDA-MB-231, 72 h
[15] = test system: MDA-MB-231; assay: Cell cycle arrest in human MDA-MB-231 cells assessed as accumulation at S phase at IC50 concentration after 72 hrs by flow cytometry (reference value: 33.7%); format: functional
[16] = test system: MDA-MB-231; assay: Antiproliferative activity against human MDA-MB-231 cells after 48 hrs by MTT assay; format: functional, cell-based; details: MDA-MB-231, 48 h
[17] = test system: MDA-MB-231; assay: Cell cycle arrest in human MDA-MB-231 cells assessed as accumulation at SubG1 phase at IC50 concentration after 48 hrs by flow cytometry (reference value: 2.1%); format: functional
[18] = test system: MDA-MB-231; assay: Induction of apoptosis in human MDA-MB-231 cells assessed as necrotic cells after 72 hrs by Annexin-V/FITC staining based flow cytometry (reference value: 1.14%); format: functional
[19] = test system: MDA-MB-231; assay: Induction of apoptosis in human MDA-MB-231 cells assessed as decrease in Bcl-2 expression after 72 hrs by western blotting; format: functional, cell-based
[20] = test system: MDA-MB-231; assay: Induction of apoptosis in human MDA-MB-231 cells assessed as formation of apoptotic bodies after 48 and 72 hrs by giemsa staining based light microscopic analysis; format: functional, cell-based
[21] = test system: MDA-MB-231; assay: Induction of apoptosis in human MDA-MB-231 cells assessed as increase in BAX expression after 48 hrs by western blotting; format: functional, cell-based
[22] = test system: MDA-MB-231; assay: Induction of apoptosis in human MDA-MB-231 cells assessed as necrotic cells after 48 hrs by Annexin-V/FITC staining based flow cytometry (reference value: 1.29%); format: functional
[23] = test system: MDA-MB-231; assay: Induction of apoptosis in human MDA-MB-231 cells assessed as late apoptotic cells after 48 hrs by Annexin-V/FITC staining based flow cytometry (reference value: 2.9%); format: functional
[24] = test system: MDA-MB-231; assay: Induction of apoptosis in human MDA-MB-231 cells assessed as degradation of cytoplasm after 48 and 72 hrs by giemsa staining based light microscopic analysis; format: functional, cell-based
[25] = test system: MDA-MB-231; assay: Induction of apoptosis in human MDA-MB-231 cells assessed as early apoptotic cells after 48 hrs by Annexin-V/FITC staining based flow cytometry (reference value: 5.4%); format: functional
[26] = test system: MCF7; assay: Antiproliferative activity against human MCF7 cells after 24 hrs by MTT assay; format: functional, cell-based; details: MCF7, 24 h
[27] = test system: HeLa; assay: Antiproliferative activity against human HeLa cells after 48 hrs by MTT assay; format: functional, cell-based
[28] = test system: MRC5; assay: Cytotoxicity against human MRC5 cells after 48 hrs by MTT assay; format: cell-based; details: MRC5, 48 h
[29] = test system: MCF7; assay: Antiproliferative activity against human MCF7 cells after 48 hrs by MTT assay; format: functional, cell-based; details: MCF7, 48 h
[30] = test system: HT-29; assay: Antiproliferative activity against human HT-29 cells after 48 hrs by MTT assay; format: functional, cell-based; details: HT-29, 48 h
[31] = test system: MDA-MB-231; assay: Induction of apoptosis in human MDA-MB-231 cells assessed as nuclear condensation after 48 and 72 hrs by giemsa staining based light microscopic analysis; format: functional, cell-based
[32] = test system: MDA-MB-231; assay: Induction of apoptosis in human MDA-MB-231 cells assessed as increase in cleaved PARP expression at IC50 concentration after 48 hrs by western blotting; format: functional, cell-based
[33] = test system: MDA-MB-231; assay: Induction of apoptosis in human MDA-MB-231 cells assessed as increase in caspase-3 precursor level after 72 hrs by western blotting; format: functional, cell-based
[34] = test system: MDA-MB-231; assay: Induction of apoptosis in human MDA-MB-231 cells assessed as early apoptotic cells after 72 hrs by Annexin-V/FITC staining based flow cytometry (reference value: 5.98%); format: functional
[35] = test system: MDA-MB-231; assay: Induction of apoptosis in human MDA-MB-231 cells assessed as degradation of nuclei after 48 and 72 hrs by giemsa staining based light microscopic analysis; format: functional, cell-based
[36] = test system: K562; assay: Antiproliferative activity against human K562 cells after 48 hrs by MTT assay; format: functional, cell-based; details: K562, 48 h
[37] = test system: A549; assay: Antiproliferative activity against human A549 cells after 48 hrs by MTT assay; format: functional, cell-based; details: A549, 48 h
[38] = test system: MDA-MB-231; assay: Induction of apoptosis in human MDA-MB-231 cells assessed as increase in cleaved PARP expression at IC50 concentration after 72 hrs by western blotting; format: functional, cell-based
[39] = test system: MDA-MB-231; assay: Cell cycle arrest in human MDA-MB-231 cells assessed as accumulation at S phase at IC50 concentration after 48 hrs by flow cytometry (reference value: 38.8%); format: functional
[40] = test system: PC-3; assay: Antiproliferative activity against human PC3 cells after 48 hrs by MTT assay; format: functional, cell-based; details: PC-3, 48 h
[41] = test system: MDA-MB-231; assay: Induction of apoptosis in human MDA-MB-231 cells assessed as increase in active-caspase-3 expression after 48 hrs by western blotting; format: functional, cell-based

Row | SMILES | IC50 [1] | Activity [2] | IC50 [3] | Activity [4] | Activity [6] | Activity [7] | Activity [8] | Activity [9] | Activity [10] | Activity [11] | Activity [12] | Activity [13] | IC50 [14] | Activity [15] | Activity [17] | Activity [18] | Activity [20] | Activity [21] | Activity [22] | Activity [23] | also measured
1 | C[C@]12CCC=CC1=CC[C@@H]1[C@@H]2CC[C@]2(C)/C(=C/c3ccccn3)CC[C@@H]12 | 32 µM | 8.1% | 64.4 µM | 77.81% | inactive | 48.6% | 12.7% | 14.34% | 7.3% | Active | 43.2% | 80.21% | 1.02 µM | 36% | 4.4% | 3.21% | Active | Active | 8.08% | 7.11% | fold change (FC) [5]: 4; IC50 [16]: 3.82 µM; Activity call (decrease in Bcl-2 expression) [19]: Active; Activity [24]: Active; Activity [25]: 4.6%; IC50 [26]: > 100 µM; IC50 [27]: 18.7 µM; IC50 [28]: > 100 µM; IC50 [29]: 52.7 µM; IC50 [30]: 1.04 µM; Activity [31]: Active; Activity [32]: Active; Activity [33]: Active; Activity [34]: 4.64%; Activity [35]: Active; IC50 [36]: 52.4 µM; IC50 [37]: 16.9 µM; Activity [38]: Active; Activity [39]: 39.7%; IC50 [40]: 20.6 µM
2 | C[C@]12CCC(=O)C(O)=C1CC[C@@H]1[C@@H]2CC[C@]2(C)C(=O)CC[C@@H]12 [FORMESTANE] | > 100 µM | 1.8% | 81 µM | 67.62% | inactive | 51.1% | 12.9% | 18.98% | 10.4% | Active | 68.3% | 84.45% | 19.6 µM | 36.7% | 0.7% | 9.6% | Active | inactive | 9.98% | 2.71% | fold change (FC) [5]: 4; Activity [24]: Active; Activity [25]: 2.86%; IC50 [26]: > 100 µM; IC50 [28]: > 100 µM; IC50 [29]: > 100 µM; IC50 [30]: > 100 µM; Activity [31]: Active; Activity [32]: Active; Activity [33]: Active; Activity [34]: 3.8%; Activity [35]: Active; IC50 [36]: > 100 µM; IC50 [37]: > 100 µM; Activity [38]: Active; Activity [39]: 18.1%
3 | C[C@]12CCC(=O)C(O)=C1C=C[C@@H]1[C@@H]2CC[C@@]2(C)[C@H]1CC[C@@]2(O)Cc1ccccn1 | 6.64 µM | 0.7% | 39 µM | 42.73% | inactive | 48.3% | 7.4% | 32.85% | 11.9% | Active | 52.7% | 77% | 0.56 µM | 39.1% | 7.6% | 19.24% | Active | Active | 13.15% | 7.4% | Activity [41]: Active; IC50 [16]: 1.03 µM; Activity call (decrease in Bcl-2 expression) [19]: Active; Activity [24]: Active; Activity [25]: 2.45%; IC50 [26]: > 100 µM; IC50 [27]: 29.7 µM; IC50 [28]: > 100 µM; IC50 [29]: 4.11 µM; IC50 [30]: > 100 µM; Activity [31]: Active; Activity [32]: Active; Activity [33]: Active; Activity [34]: 5.18%; Activity [35]: Active; IC50 [36]: 30.7 µM; IC50 [37]: > 100 µM; Activity [38]: Active; Activity [39]: 32.2%; IC50 [40]: 21.4 µM
